Experiment [1] deals with H1975 (KRAS wild type human lung adenocarcinoma cell line). The experiment is described as follows: KRAS 3D-Cell Proliferation Assay, H1975 (Example 503). The class given is cell-based. The note with it: Homo sapiens, NCI-H1975, 168 h, H1975 3D culture, 7 days, CellTiter-Glo 3D; read-out: Prolif H1975 3D ATP IC50. In outline:
(§1)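 IC50s come from a 4-parameter Hill fit of luminescence (CellTiter-Glo 3D) normalized between DMSO (0%) and 1 μM staurosporine (100%). Cells in low-attachment 3D culture, RPMI-1640 with 10% FBS, received serial compound dilutions (0.3% DMSO) after overnight and were incubated 7 days at 37 °C.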

The subject of experiment [2] is HPAC (homozygous mutant KRAS G12D human pancreatic cell line). Put plainly: KRAS 3D-Cell Proliferation Assay, HPAC (Example 503). It counts as cell-based. The note with it: Homo sapiens, HPAC, 168 h, HPAC 3D culture, 7 days, CellTiter-Glo 3D; read-out: Prolif HPAC 3D ATP IC50. In short, it runs like this:
as §1

`Cc1c(F)c(N)cc(-c2nc3c4c(nc(OCC5(CN6CC(F)C6)CC5)nc4c2F)N2C[C@H]4CC[C@H](N4)[C@H]2[C@H](C)O3)c1C(F)(F)F` [Compound 173, 2-Fluoro-5-((5S,5aS,6S,9R)-1-fluoro-12-((1-((3-fluoroazetidin-1-yl)methyl)cyclopropyl)methoxy)-5-methyl-5a,6,7,8,9,10-hexahydro-5H-4-oxa-3,10a,11,13,14-pentaaza-6,9-methanonaphtho[1,8-ab]heptalene-2-yl)-3-methyl-4-(trifluoromethyl)aniline]: the concentration for half-maximal inhibition (IC50) was determined as 917 nM in experiment [1] and 1.33 nM in experiment [2].
In the case of `Cc1c(F)c(N)c(F)c(-c2nc3c4c(nc(OC[C@@]56CCCN5C[C@H](F)C6)nc4c2F)N2C[C@H]4CC[C@H](N4)[C@H]2[C@H](C)O3)c1CC(F)F` [Compound 175, 4-(2,2-Difluoroethyl)-2,6-difluoro-3-((5S,5aS,6S,9R)-1-fluoro-12-(((2R,7aS)-2-fluorotetrahydro-1H-pyrrolizin-7a(5H)-yl)methoxy)-5-methyl-5a,6,7,8,9,10-hexahydro-5H-4-oxa-3,10a,11,13,14-pentaaza-6,9-methanonaphtho[1,8-ab]heptalen-2-yl)-5-methylaniline], the IC50 in experiment [1] is 2340 nM; in experiment [2], 19.6 nM.
On the same counts, the results for `Cc1cc(-c2nc3c4c(nc(OC[C@@]56CCCN5C[C@H](F)C6)nc4c2F)N2C[C@H]4CC[C@H](N4)[C@H]2[C@H](C)O3)c(F)c(N)n1` [Compound 177, 3-Fluoro-4-((5S,5aS,6S,9R)-1-fluoro-12-(((2R,7aS)-2-fluorotetrahydro-1H-pyrrolizin-7°(5H)-yl)methoxy)-5-methyl-5°,6,7,8,9,10-hexahydro-5H-4-oxa-3,10°,11,13,14-pentaaza-6,9-methanonaptho[1,8-ab]heptalen-2-yl)-6-methylpyridin-2-amine] are 20000 nM and 4450 nM.
On the same counts, the results for `C[C@@H]1Oc2nc(-c3cc(N)cnc3C(F)(F)F)c(F)c3nc(OC[C@@]45CCCN4C[C@H](F)C5)nc(c23)N2C[C@H]3CC[C@H](N3)[C@@H]12` [Compound 178, 5-((5S,5aS,6S,9R)-1-Fluoro-12-(((2R,7aS)-2-fluorotetrahydro-1H-pyrrolizin-7a(5H)-yl)methoxy)-5-methyl-5a,6,7,8,9,10-hexahydro-5H-4-oxa-3,10a,11,13,14-pentaaza-6,9-methanonaphtho[1,8-ab]heptalene-2-yl)-6-(trifluoromethyl)pyridin-3-amine] are 9280 nM and 133 nM.
For `CCc1cccc2nc(N)cc(-c3nc4c5c(nc(OC[C@@]67CCCN6C[C@H](F)C7)nc5c3F)N3C[C@H]5CC[C@H](N5)[C@H]3[C@H](C)O4)c12` [Compound 179, 5-Ethyl-4-((5S,5aS,6S,9R)-1-fluoro-12-(((2R,7aS)-2-fluorotetrahydro-1H-pyrrolizin-7a(5H)-yl)methoxy)-5-methyl-5a,6,7,8,9,10-hexahydro-5H-4-oxa-3,10a,11,13,14-pentaaza-6,9-methanonaphtho[1,8-ab]heptalene-2-yl)quinolin-2-amine] the same measures were 8410 nM and 294 nM.
With `Cc1c(F)c(N)cc(-c2nc3c4c(nc(OC[C@@]56CCCN5C[C@H](F)C6)nc4c2F)N2C[C@H]4CC[C@H](N4)[C@H]2[C@H](C)O3)c1S(C)(=O)=O` [Compound 180, 2-Fluoro-5-((5S,5aS,6S,9R)-1-fluoro-12-(((2R,7aS)-2-fluorotetrahydro-1H-pyrrolizin-7a(5H)-yl)methoxy)-5-methyl-5a,6,7,8,9,10-hexahydro-5H-4-oxa-3,10a,11,13,14-pentaaza-6,9-methanonaphtho[1,8-ab]heptalene-2-yl)-3-methyl-4-(methylsulfonyl)aniline], the figures for the half-inhibitory concentration (IC50) in experiment [1] and in experiment [2] were 20000 nM and 2000 nM, respectively.
As to `C[C@@H]1Oc2nc(-c3cc(N)c(=O)n(C)c3C(F)(F)F)c(F)c3nc(OC[C@@]45CCCN4C[C@H](F)C5)nc(c23)N2C[C@H]3CC[C@H](N3)[C@@H]12` [Compound 184, 3-Amino-5-((5S,5aS,6S,9R)-1-fluoro-12-(((2R,7aS)-2-fluorotetrahydro-1H-pyrrolizin-7a(5H)-yl)methoxy)-5-methyl-5a,6,7,8,9,10-hexahydro-5H-4-oxa-3,10a,11,13,14-pentaaza-6,9-methanonaphtho[1,8-ab]heptalene-2-yl)-1-methyl-6-(trifluoromethyl)pyridin-2(1H)-one], the IC50 in experiment [1] turned out to be 20000 nM; in experiment [2], 147 nM.
For `Cc1nc(N)cc(-c2nc3c4c(nc(OC[C@@]56CCCN5C[C@H](F)C6)nc4c2F)N2C[C@H]4CC[C@H](N4)[C@H]2[C@H](C)O3)c1CC(F)(F)F` [Compound 185, 4-((5S,5aS,6S,9R)-1-Fluoro-12-(((2R,7aS)-2-fluorotetrahydro-1H-pyrrolizin-7a(5H)-yl)methoxy)-5-methyl-5a,6,7,8,9,10-hexahydro-5H-4-oxa-3,10a,11,13,14-pentaaza-6,9-methanonaphtho[1,8-ab]heptalene-2-yl)-6-methyl-5-(2,2,2-trifluoroethyl)pyridin-2-amine] the same measures were 4930 nM and 32 nM.
On the same counts, the results for `C[C@@H]1Oc2nc(-c3cc(N)c(F)cc3CC(F)F)c(F)c3nc(OC[C@@]45CCCN4C[C@H](F)C5)nc(c23)N2C[C@H]3CC[C@H](N3)[C@@H]12` [Compound 187, 4-(2,2-Difluoroethyl)-2-fluoro-5-((5S,5aS,6S,9R)-1-fluoro-12-(((2R,7aS)-2-fluorotetrahydro-1H-pyrrolizin-7a(5H)-yl)methoxy)-5-methyl-5a,6,7,8,9,10-hexahydro-5H-4-oxa-3,10a,11,13,14-pentaaza-6,9-methanonaphtho[1,8-ab]heptalene-2-yl)aniline] are 18900 nM and 34.8 nM.
On to `Cc1nc(N)cc(-c2nc3c4c(nc(OC[C@@]56CCCN5C[C@H](F)C6)nc4c2F)N2C[C@H]4CC[C@H](N4)[C@H]2[C@H](C)O3)c1OC(F)F` [Compound 188, 5-(Difluoromethoxy)-4-((5S,5aS,6S,9R)-1-fluoro-12-(((2R,7aS)-2-fluorotetrahydro-1H-pyrrolizin-7a(5H)-yl)methoxy)-5-methyl-5a,6,7,8,9,10-hexahydro-5H-4-oxa-3,10a,11,13,14-pentaaza-6,9-methanonaphtho[1,8-ab]heptalene-2-yl)-6-methylpyridin-2-amine], for which the IC50 in experiment [1] was 10100 nM; in experiment [2], 66 nM.
For `Cc1nc(N)cc(-c2nc3c4c(nc(OC[C@@]56CCCN5C[C@H](F)C6)nc4c2F)N2C[C@H]4CC[C@H](N4)[C@H]2[C@H](C)O3)c1CC(F)F` [Compound 189, 5-(2,2-Difluoroethyl)-4-((5S,5aS,6S,9R)-1-fluoro-12-(((2R,7aS)-2-fluorotetrahydro-1H-pyrrolizin-7a(5H)-yl)methoxy)-5-methyl-5a,6,7,8,9,10-hexahydro-5H-4-oxa-3,10a,11,13,14-pentaaza-6,9-methanonaphtho[1,8-ab]heptalene-2-yl)-6-methylpyridin-2-amine] the same measures were 20000 nM and 95.4 nM.
For `Cc1c(F)c(N)nc(-c2nc3c4c(nc(OC[C@@]56CCCN5C[C@H](F)C6)nc4c2F)N2C[C@H]4CC[C@H](N4)[C@H]2[C@H](C)O3)c1C(F)(F)F` [Compound 191, 3-Fluoro-6-((5S,5aS,6S,9R)-1-fluoro-12-(((2R,7aS)-2-fluorotetrahydro-1H-pyrrolizin-7a(5H)-yl)methoxy)-5-methyl-5a,6,7,8,9,10-hexahydro-5H-4-oxa-3,10a,11,13,14-pentaaza-6,9-methanonaphtho[1,8-ab]heptalen-2-yl)-4-methyl-5-(trifluoromethyl)pyridin-2-amine], the IC50 in experiment [1] was determined as 1410 nM; in experiment [2] it was 29.6 nM.
On the same counts, the results for `Cc1c(F)c(N)nc(-c2nc3c4c(nc(OC[C@@]56CCCN5CC5(CC5(F)F)C6)nc4c2F)N2C[C@H]4CC[C@H](N4)[C@H]2[C@H](C)O3)c1C(F)(F)F` (stereo partly drawn) [Compound 192, 6-((5S,5aS,6S,9R)-12-(((7a′S)-2,2-Difluorodihydro-1′H,3′H-spiro[cyclopropane-1,2′-pyrrolizin]-7a′(5′H)-yl)methoxy)-1-fluoro-5-methyl-5a,6,7,8,9,10-hexahydro-5H-4-oxa-3,10a,11,13,14-pentaaza[6,9]methanonaphtho[1,8-ab]heptalene-2-yl)-3-fluoro-4-methyl-5-(trifluoromethyl)pyridin-2-amine] are 1280 nM and 7.17 nM.
For `C[C@@H]1Oc2nc(N(C)c3ccc(F)c(N)c3)c(F)c3nc(OC[C@@]45CCCN4C[C@H](F)C5)nc(c23)N2C[C@H]3CC[C@H](N3)[C@@H]12` [Compound 193, 4-fluoro-N^1-((5S,5aS,6S,9R)-1-fluoro-12-(((2R,7aS)-2-fluorotetrahydro-1H-pyrrolizin-7a(5H)-yl)methoxy)-5-methyl-5a,6,7,8,9,10-hexahydro-5H-4-oxa-3,10a,11,13,14-pentaaza-6,9-methanonaphtho[1,8-ab]heptalen-2-yl)-N^1-methylbenzene-1,3-diamine] the same measures were 20000 nM and 2000 nM.
On the same counts, the results for `Cc1c(F)c(N)c(F)c(-c2nc3c4c(nc(OC[C@@]56CCCN5C[C@H](F)C6)nc4c2F)N2C[C@H]4CC[C@H](N4)[C@H]2[C@H](C)O3)c1Cl` [Compound 195, 4-Chloro-2,6-difluoro-3-((5S,5aS,6S,9R)-1-fluoro-12-(((2R,7aS)-2-fluorotetrahydro-1H-pyrrolizin-7a(5H)-yl)methoxy)-5-methyl-5a,6,7,8,9,10-hexahydro-5H-4-oxa-3,10a,11,13,14-pentaaza-6,9-methanonaphtho[1,8-ab]heptalen-2-yl)-5-methylaniline] are 1340 nM and 22.1 nM.

These data come from patent US12338256B2, “Aza-tetracyclic oxazepine compounds and uses thereof” (Genentech, Inc., priority 2022, dated 2025).
